Experimental data as given in patent US6756480B2, “Modulators of receptors for parathyroid hormone and parathyroid hormone-related protein” (Amgen Inc., priority 2000, dated 2004).

Experiments:
Format in all cases: in vivo
[1] = system: rats; assay: Hypercalcemic response to a single SC injection in rats; conditions: single SC injection 340 nmol/kg
Method: (See FIG. 10.) In an aged OVX rat model of osteoporosis, twice weekly dosing was able to reverse more than 50% of the bone loss induced by one year of estrogen ablation. The effect seen in the aged rat model was even greater when combined with a bisphosphonate (APD). In rats, a single SC injection of PTH-(1-34)-Fc (340 nmol/kg) caused a hypercalcemic response which persisted for 72 hours (FIG. 8). This duration is concordant with the rate of clearance of PTH-(1-34)-Fc from the serum, and is consistent with an optimal twice-weekly dosing regimen in rats.

[2] = system: mice; assay: Hypercalcemia assay: murine hypercalcemia model, single SC injection, blood ionized calcium
Method: Mice were challenged with vehicle (PBS, —X—), or with PTH-(1-34) (open symbols) or with PTH-(1-34)-Fc (closed symbols). Doses were 156 nmol/kg (circles), 469 nmol/kg (triangles) or 1,560 nmol/kg (squares). Data represent group means, n=6 mice/group.
We tested the potency and duration of effect of PTH-(1-34)-Fc in a murine hypercalcemia model. Briefly, mice were injected once SC with varying doses of PTH-(1-34) or PTH-(1-34)-Fc, and peripheral blood was collected from the retroorbital sinus for determination of blood ionized calcium. The half-life and the potency of PTH-(1-34)-Fc was greater than that of PTH-(1-34), as evidenced by the sustained hypercalcemic response of mice to the former agent (FIG. 4). Hypercalcemia induced by PTH-(1-34) persisted for 6-24 h, while equimolar doses of PTH-(1-34)-Fc caused more sustained hypercalcemia (48-72 h). This duration of response is consistent with greater half-life of the PTH-(1-34)-Fc construct vs. PTH-(1-34).

[3] = system: male BDF1 mice; assay: Monotherapy in adult mice: twice-weekly PTH-(1-34)-Fc versus daily PTH-(1-34), tibial BMD by pQCT
Method: Daily PTH [PTH-(1-34)] was given at 80 μg/kg/day (20 nmol/kg/day).
Briefly, male BDF1 mice (4 months of age) were treated twice per week by subcutaneous injection with various doses of PTH-(1-34)-Fc or with vehicle (PBS). Other mice were treated daily with SC injections of PTH-(1-34) at a dose of 80 μg/kg/day (20 nmol/kg/day), a treatment regimen which is optimal for increasing bone mass in rodents (M. Gunness-Hey and J. M. Hock, Metab. Bone Dis. & Rel. Res. 5:177-181, 1984). After 3 weeks, mice were sacrificed and tibiae were analyzed for bone mineral density (BMD) via pQCT (FIG. 10).

[4] = 3 weeks, PTH-(1-34) daily 80 μg/kg/day, PTH-(1-34)-Fc twice weekly, various doses
[5] = two highest doses, 50 and 150 nmol/kg twice weekly

For “PTH-(1-34)-Fc: human PTH-(1-34), SVSEIQLMHNLGKHLNSMERVEWLRKKLQDVHNF, linked at its C-terminus to an Fc domain”, the “persistence of hypercalcemic response” value [1] was 72 h, the “peak ionized calcium levels compared with an equimolar dose of PTH-(1-34)” value ([2]; highest dose) was “greater increase in peak ionized calcium levels” and the “hypercalcemic response (area under the curve) relative to equimolar PTH-(1-34)” value ([2]; highest dose employed) was 2.6 fold. The “potency compared with PTH-(1-34)” value ([2]; hypercalcemic response) was “significantly greater”, the duration of hypercalcemia ([2]; single SC injection, equimolar doses, blood ionized calcium) was 48 to 72 h and the “cancellous BMD compared to vehicle” value [3, 4] was “dose-dependent increases”. For the same substance, the “total tibial BMD compared to vehicle” value [3, 4] was “dose-dependent increases”, the “cortical BMD in the tibia” value ([3]; 3 weeks, PTH-(1-34) daily, PTH-(1-34)-Fc twice weekly, various doses) was “dose-dependent increase” and the “bone density and bone volume compared to daily PTH-(1-34)” value ([3]; adult mice, twice weekly dosing) was “greater increases in bone density and bone volume”. The “cortical BMD versus vehicle or daily PTH-(1-34)” value ([3]; highest dose twice weekly, p<0.05) was “significantly greater”, the “cancellous BMD versus vehicle or daily PTH-(1-34)” value [3, 5] was “significantly greater” and the “total BMD versus vehicle or daily PTH-(1-34)” value [3, 5] was “significantly greater”.
